Read-outs that look alike come from different tables or passages of the source.
Experiments:
S. aureus = assay: MIC against S. aureus strains and clinical isolates (broth microdilution); format: cell-based, Staphylococcus aureus
Procedure: were tested against a collection of clinical isolates of S. aureus including strains that were multi-resistant to mupirocin and to other agents such as gentamicin and oxacillin.
The acetate and mupirocin salts of the MRS inhibitor compound 5 were tested against a collection of both low and high-level mupirocin resistant clinical isolates of S. aureus (Table 6).
The bacterial strains were tested for susceptibility to mupirocin and MRSi compound 2 using the broth microdilution method in accordance with NCCLS guideline to determine their MICs.
Briefly, the MIC and checkerboard titration assays were performed with strains in microtiter trays with cation-supplemented Mueller-Hinton broth (Difco). Inocula were prepared by suspending growth from blood agar plates in sterile saline to a density equivalent to that of a 0.5 McFarland standard and were diluted […] to produce a final inoculum of 5×10^5 CFU/ml. The trays were incubated aerobically overnight. Standard quality control strains were included with each run. Fractional inhibitory concentrations (FICs) were calculated as the MIC of drug A or B in combination/MIC of drug A or B alone, and the FIC index was obtained by adding the two FICs. FIC indices were interpreted as synergistic if the values were ≦0.5, additive or indifferent if the values were >0.5 to 4, and antagonistic if the values were >4.0.

E. faecalis = assay: MIC against E. faecalis; format: cell-based
Procedure: (§1) The MRS inhibitor 4 alone and in combination with mupirocin (mupirocin salt and 1:1 combination) were tested against a collection of Gram-positive pathogens.
MRSi compound 5 alone and in combination with mupirocin was tested recent clinical isolates of E. faecalis (n=28) and E. faecium (n=23). Both the acetate salt and mupirocinate salts of MRSi compound 5 maintained potent activity against vancomycin-susceptible and—resistant enterococci (Tables 8, 9, and 10).

S. pyogenes = assay: MIC against S. pyogenes; format: cell-based, Streptococcus pyogenes
Procedure: as §1
S. pyogenes is also a significant skin pathogen and 48 recent clinical isolates were tested for their susceptibility to MRSi compound 5 alone (acetate) and in combination (1:1) with mupirocin (mupirocinate).

S. epidermidis = assay: MIC against S. epidermidis; format: cell-based
Procedure: as §1
(§2) The MRS inhibitor 8 was also prepared as a fusidate and mupirocinate salt and tested for antibacterial activity against Gram-positive bacteria (Table 3). […] MRSi compound 8 alone and the fusidate and mupirocin salts were active against mupirocin-resistant S. aureus and S. epidermidis and organisms such as E. faecalis that are not susceptible to mupirocin.
(§3) The MRS inhibitor 5 acetate and mupirocin salts were tested against a collection of Gram-positive bacteria.

S. hemolyticus = assay: MIC against S. hemolyticus; format: cell-based
Procedure: as §1, §2, §3

[1] = Table 3, S. aureus ATCC 43300 (ORSA)
[2] = Table 3, S. aureus NRS107 (mupA)
[3] = Table 3, E. faecalis ATCC 29212
[4] = Table 3, S. pyogenes ATCC 19615
[5] = Table 3, S. pyogenes MB143 (macrolide rest.)

Structure (SMILES): Cc1c(CNCCCNc2cc(=O)c3ccccc3[nH]2)sc(Br)c1Br [MRSI Cmpd 4 acetate, N-(4,5-Dibromo-3-methylthiophen-2-ylmethyl)-N′-(1H-quinolin-4-one)propane-1,3-diamine]
- MIC (S. aureus; Staphylococcus aureus, ATCC29213, Table 2, S. aureus ATCC 29213, read-out: MIC): 0.25 µg/mL
- MIC (S. aureus; Staphylococcus aureus, ATCC43300, Table 2, S. aureus ATCC 43300 (ORSA), read-out: MIC): 0.25 µg/mL
- MIC (S. aureus; Staphylococcus aureus, NRS107, Table 2, S. aureus NRS107 (mupA), read-out: MIC): 0.03 µg/mL
- MIC (S. aureus; Staphylococcus aureus, Table 2, S. aureus Oxford, read-out: MIC): 0.03 µg/mL
- MIC (E. faecalis; Enterococcus faecalis, ATCC29212, Table 2, E. faecalis ATCC 29212, read-out: MIC): ≤ 0.008 µg/mL
- MIC (E. faecalis; Enterococcus faecalis, Table 2, E. faecalis 1, read-out: MIC): 0.015 µg/mL
- MIC (E. faecalis; Enterococcus faecalis, Table 2, E. faecalis 7, read-out: MIC): ≤ 0.008 µg/mL
- MIC (S. pyogenes; Streptococcus pyogenes, ATCC19615, Table 2, S. pyogenes ATCC 19615, read-out: MIC): 0.25 µg/mL
- MIC (S. pyogenes; Streptococcus pyogenes, Table 2, S. pyogenes MB143 (macrolide rest.), read-out: MIC): 0.12 µg/mL
- MIC (S. epidermidis; Staphylococcus epidermidis, Table 2, S. epidermidis NRS6, read-out: MIC): 0.5 µg/mL
- MIC (S. epidermidis; Staphylococcus epidermidis, Table 2, S. epidermidis NRS7, read-out: MIC): 0.03 µg/mL
- MIC (S. epidermidis; Staphylococcus epidermidis, Table 2, S. epidermidis NRS8, read-out: MIC): 0.25 µg/mL
- MIC (S. hemolyticus; Table 2, S. hemolyticus NRS50, read-out: MIC): 0.25 µg/mL
- MIC (S. hemolyticus; Table 2, S. hemolyticus NRS116, read-out: MIC): 0.5 µg/mL

Structure (SMILES): CC(=CC(=O)OCCCCCCCCC(=O)O)CC1OCC(CC2OC2C(C)C(C)O)C(O)C1O.Cc1c(CNCCCNc2cc(=O)c3ccccc3[nH]2)sc(Br)c1Br (stereo not shown) [MRSi Cmpd 4 mupirocinate, N-(4,5-DIBROMO-3-METHYLTHIOPHEN-2-YLMETHYL)-N′-(1H-QUINOLIN-4-ONE)PROPANE-1,3-DIAMINE MUPIROCINATE]
- MIC (S. aureus; Table 2, S. aureus ATCC 29213): 0.5 µg/mL
- MIC (S. aureus; Table 2, S. aureus ATCC 43300 (ORSA)): 0.5 µg/mL
- MIC (S. aureus; Table 2, S. aureus NRS107 (mupA)): 0.25 µg/mL
- MIC (S. aureus; Table 2, S. aureus Oxford): 0.25 µg/mL
- MIC (E. faecalis; Table 2, E. faecalis 1): 0.12 µg/mL
- MIC (E. faecalis; Table 2, E. faecalis 7): 0.12 µg/mL
- MIC (E. faecalis; Table 2, E. faecalis ATCC 29212): 0.06 µg/mL
- MIC (S. pyogenes; Table 2, S. pyogenes ATCC 19615): 0.25 µg/mL
- MIC (S. pyogenes; Table 2, S. pyogenes MB143 (macrolide rest.)): 0.25 µg/mL
- MIC (S. epidermidis; Table 2, S. epidermidis NRS6): 1 µg/mL
- MIC (S. epidermidis; Table 2, S. epidermidis NRS7): 0.25 µg/mL
- MIC (S. epidermidis; Table 2, S. epidermidis NRS8): 1 µg/mL
- MIC (S. hemolyticus; Table 2, S. hemolyticus NRS50): 0.5 µg/mL
- MIC (S. hemolyticus; Table 2, S. hemolyticus NRS116): 0.5 µg/mL

Structure (SMILES): Clc1cc(Cl)c2c(Cl)c(CNCCCNc3nc4ncccc4[nH]3)[nH]c2c1 [MRSi Cmpd 8 acetate, N-(1H-imidazo[4,5-b]pyridin-2-yl)-N′-(3,4,6-trichloro-1H-indol-2-ylmethyl)—propane-1,3-diamine]
- MIC (S. aureus; Staphylococcus aureus, ATCC29213, Table 3, S. aureus ATCC 29213, read-out: MIC): 0.06 µg/mL
- MIC (S. aureus; Staphylococcus aureus, ATCC43300, Table 3, S. aureus ATCC 43300 (ORSA), read-out: MIC): 0.03 µg/mL
- MIC (S. aureus; Staphylococcus aureus, NRS107, Table 3, S. aureus NRS107 (mupA), read-out: MIC): 0.03 µg/mL
- MIC (S. aureus; Staphylococcus aureus, Table 3, S. aureus Oxford, read-out: MIC): 0.03 µg/mL
- MIC (E. faecalis; Enterococcus faecalis, ATCC29212, Table 3, E. faecalis ATCC 29212, read-out: MIC): 0.03 µg/mL
- MIC (E. faecalis; Enterococcus faecalis, Table 3, E. faecalis 1, read-out: MIC): 0.03 µg/mL
- MIC (E. faecalis; Enterococcus faecalis, Table 3, E. faecalis 7, read-out: MIC): 0.03 µg/mL
- MIC (S. pyogenes; Streptococcus pyogenes, ATCC19615, Table 3, S. pyogenes ATCC 19615, read-out: MIC): 0.12 µg/mL
- MIC (S. pyogenes; Streptococcus pyogenes, Table 3, S. pyogenes MB143 (macrolide rest.), read-out: MIC): 0.12 µg/mL
- MIC (S. epidermidis; Staphylococcus epidermidis, Table 3, S. epidermidis NRS6, read-out: MIC): 0.12 µg/mL
- MIC (S. epidermidis; Staphylococcus epidermidis, Table 3, S. epidermidis NRS7, read-out: MIC): 0.06 µg/mL
- MIC (S. epidermidis; Staphylococcus epidermidis, Table 3, S. epidermidis NRS8, read-out: MIC): 0.12 µg/mL
- MIC (S. hemolyticus; Table 3, S. hemolyticus NRS50, read-out: MIC): 0.06 µg/mL
- MIC (S. hemolyticus; Table 3, S. hemolyticus NRS116, read-out: MIC): 0.12 µg/mL

Structure (SMILES): CC(=O)O[C@H]1C[C@@]2(C)[C@@H](C[C@@H](O)[C@H]3[C@@]4(C)CC[C@@H](O)[C@@H](C)[C@@H]4CC[C@@]32C)/C1=C(\CCC=C(C)C)C(=O)O.Clc1cc(Cl)c2c(Cl)c(CNCCCNc3nc4ncccc4[nH]3)[nH]c2c1 [MRSi Cmpd 8 fusidate, N-(1H-IMIDAZO[4,5-B] PYRIDIN-2-YL)-N′-(3,4,6-TRICHLORO-1H-INDOL-2-YLMETHYL)-PROPANE-1,3-DIAMINE FUSIDATE]
- MIC (S. aureus; Table 3, S. aureus ATCC 29213): 0.12 µg/mL
- MIC (S. aureus; [1]): 0.06 µg/mL
- MIC (S. aureus; [2]): 0.06 µg/mL
- MIC (S. aureus; Table 3, S. aureus Oxford): 0.06 µg/mL
- MIC (E. faecalis; Table 3, E. faecalis 1): 0.06 µg/mL
- MIC (E. faecalis; Table 3, E. faecalis 7): 0.12 µg/mL
- MIC (E. faecalis; [3]): 0.12 µg/mL
- MIC (S. pyogenes; [4]): 0.5 µg/mL
- MIC (S. pyogenes; [5]): 0.5 µg/mL
- MIC (S. epidermidis; Table 3, S. epidermidis NRS6): 0.25 µg/mL
- MIC (S. epidermidis; Table 3, S. epidermidis NRS7): 0.12 µg/mL
- MIC (S. epidermidis; Table 3, S. epidermidis NRS8): 0.25 µg/mL
- MIC (S. hemolyticus; Table 3, S. hemolyticus NRS50): 0.12 µg/mL
- MIC (S. hemolyticus; Table 3, S. hemolyticus NRS116): 0.25 µg/mL

Structure (SMILES): CC(=CC(=O)OCCCCCCCCC(=O)O)CC1OCC(CC2OC2C(C)C(C)O)C(O)C1O.Clc1cc(Cl)c2c(Cl)c(CNCCCNc3nc4cccnc4[nH]3)[nH]c2c1 (stereo not shown) [MRSi Cmpd 8 mupirocinate, N-(1H-IMIDAZO [4,5-B]PYRIDIN-2-YL)-N′-(3,4,6-TRICHLORO-1H—INDOL-2-YLMETHYL)-PROPANE-1,3-DIAMINE MUPIROCINATE]
- MIC (S. aureus; Table 3, S. aureus ATCC 29213): 0.12 µg/mL
- MIC (S. aureus; [1]): 0.12 µg/mL
- MIC (S. aureus; [2]): 0.12 µg/mL
- MIC (S. aureus; Table 3, S. aureus Oxford): 0.12 µg/mL
- MIC (E. faecalis; Table 3, E. faecalis 1): 0.06 µg/mL
- MIC (E. faecalis; Table 3, E. faecalis 7): 0.12 µg/mL
- MIC (E. faecalis; [3]): 0.12 µg/mL
- MIC (S. pyogenes; [4]): 0.25 µg/mL
- MIC (S. pyogenes; [5]): 0.12 µg/mL
- MIC (S. epidermidis; Table 3, S. epidermidis NRS6): 0.5 µg/mL
- MIC (S. epidermidis; Table 3, S. epidermidis NRS7): 0.12 µg/mL
- MIC (S. epidermidis; Table 3, S. epidermidis NRS8): 0.25 µg/mL
- MIC (S. hemolyticus; Table 3, S. hemolyticus NRS50): 0.12 µg/mL
- MIC (S. hemolyticus; Table 3, S. hemolyticus NRS116): 0.25 µg/mL

— US20040224981A1, “Antibacterial methods and compositions” (priority 2003, published 2004)
